Source: patent publication EP4772514A1, “MACROCYCLIC COMPOUNDS, PREPARATION METHOD THEREFOR, AND USE THEREOF” (Genfleet Therapeutics (Shanghai) Inc., priority 2023, dated 2025)

System: p-ERK
Test: Cell p-ERK assay (HTRF, Advance ERK phospho-T202/Y204 kit) in NCI-H441 cells
Type: cell-based
Conditions: Homo sapiens, NCI-H441, 3 h, NCI-H441, human non-small cell lung cancer cell strain, KRAS G12V mutation; 3 h compound incubation
Experimental: AsPC-1 cells were purchased from ATCC, Cat. No. CRL-1682; NCI-H441 cells were purchased from ATCC, Cat. No. HTB-174; RPMI-1640 medium was purchased from Gibco, Cat. No. 11875-093; FBS was purchased from Gibco, Cat. No. 10099-141C; penicillin/streptomycin double-antibiotic solution (PS) was purchased from Gibco, Cat. No. 15140-122; trypsin (containing EDTA) was purchased from Gibco, Cat. No. 25200-072; DMSO was purchased from VWRAMRESCO, Cat. No. 0231-500ML; 96-well cell culture plates were purchased from Corning, Cat. No. 3599; white-bottomed, opaque 96-well plates were purchased from Cisbio, Cat. No. 66PL96025; Advance ERK phospho-T202/Y204 kit was purchased from Cisbio, Cat. No. 64AERPEH; cell counter was purchased from CHEMOMETEC, model: NC-200; microplate reader was purchased from PerkinElmer, model: EnVision.
AsPC-1, a human pancreatic cancer cell strain endogenously containing a KRAS^G12D mutation, was cultured in a complete medium containing RPMI-1640 + 10% FBS + 1% PS. NCI-H441, a human non-small cell lung cancer cell strain endogenously containing a KRAS^G12V mutation, was cultured in a complete medium containing RPMI-1640 + 10% FBS + 1% PS.
The cells were digested with trypsin (containing EDTA), collected in their corresponding complete media, and counted. The density of the cell suspensions was adjusted with their corresponding complete media, and AsPC-1 cells (10000 cells/well) or NCI-H441 cells (20000 cells/well) were seeded into a 96-well cell culture plate, with the volume of the medium in each well being 80 µL. The cell culture plate was incubated in an incubator at 37 °C with 5% CO2 overnight. A series of 3.16-fold gradient dilutions of a 1000× compound stock solution were prepared with DMSO, and then diluted 200-fold with the complete medium described above to give 5× compound stock solutions. On the day after cell seeding, 20 µL of the 5× compound stock solution was added to each cell culture well. As a result, the final concentration of the compound in the cell culture well became 1×, and the DMSO content in the well was 0.1%. In addition to the compound-treated wells described above, cell-containing DMSO control wells were also set. A complete medium containing 0.5% DMSO was added at 20 µL/well. After the mixture was well mixed, the culture plate was incubated in the incubator at 37 °C with 5% CO2 for another 3 h. The medium was then removed from the culture wells, and 50 µL of cell lysis buffer (from Advance ERK phospho-T202/Y204 kit) was added to each well. The mixture was well mixed, incubated for 30 min, and then transferred to a white-bottomed, opaque 96-well assay plate at 16 µL/well, and separately, 16 µL of cell lysis buffer was added to additional wells (serving as blank wells) in the assay plate. After the transfer was completed, 4 µL of p-ERK HTRF antibody mixture (from Advance ERK phospho-T202/Y204 kit) was added to each well of the assay plate, followed by a 4-hour incubation. The HTRF signal values (RLU) were then measured using a microplate reader, and the inhibition rate of the compound against p-ERK levels was calculated as follows: IR(%) = (RLUDMSO - RLUcompound)/(RLUDMSO - RLUblank) × 100%, where RLUDMSO is the average HTRF signal value from the DMSO control well samples, RLU is the average HTRF signal value from the blank well samples, and RLUcompound is the HTRF signal value from the compound-treated well samples. Using an XLfit software, the IR(%) values were plotted against the logarithm of the compound concentrations, and the dose-response curves were fitted using the four-parameter method to calculate the IC50 values.

| SMILES | IC50 [nM] |
| --- | --- |
| CCn1nc2c(c1-c1cc(C#CCN3CCS(=O)(=O)CC3)cnc1[C@H](C)OC)CC(C)(C)COC(=O)[C@@H]1CCCN(N1)C(=O)[C@@H](NC(=O)[C@H](C(C)C)N(C)C1CCCC1)Cc1nc(cs1)/C=C/2 (atropisomer, axis not shown; (Ra)) [Compound Z58, (2S)-2-(cyclopentyl(methyl)amino)-N-((4^2Z,8^3S,2E,6S)-(Ra)-1^5-(5-(3-(1,1-dioxidothiomorpholine)prop-1-yn-1-yl)-2-((S)-1-methoxyethyl)pyridin-3-yl)-1^1-ethyl-12,12-dimethyl-7,9-dioxo-8^1,8^2,8^3,8^4,8^5,8^6-hexahydro-1^1H-10-oxa-4(4,2)-thiazola-8(1,3)-pyridazina-1(3,4)-pyrazolecyclotridec-2-en-6-yl)-3-methylbutanamide] | 55.7 |
| CO[C@@H](C)c1ncc(C#CCN2CCS(=O)(=O)CC2)cc1-c1c2c(nn1C(C)C)/C=C/c1csc(n1)C[C@H](NC(=O)[C@H](C(C)C)N(C)c1cccc(C)c1)C(=O)N1CCC[C@H](N1)C(=O)OCC(C)(C)C2 (atropisomer, axis not shown; (Ra)) [Compound Z59, (2S)-N-((4^2Z,8^3S,2E,6S)-1^5-(Ra)-(5-(3-(1,1-dioxidothiomorpholino)prop-1-yn-1-y1)-2-((S)-1-methoxyethyl)pyridin-3-yl)-1^1-isopropyl-12,12-dimethyl-7,9-dioxo-8^1,8^2,8^3,8^4,8^5,8^6-hexahydro-1^1H-10-oxa-4(4,2)-thiazola-8(1,3)-pyridazina-1(3,4)-pyrazolocyclotridec-2-en-6-yl)-3-methyl-2-(methyl(m-tolyl)amino)butanamide] | 49.2 |
| CO[C@@H](C)c1ncc(C#CCN2CCS(=O)(=O)CC2)cc1-c1c2c(nn1C(C)C)/C=C/c1csc(n1)C[C@H](NC(=O)[C@H](C(C)C)N(C)c1ccc3ccccc3c1)C(=O)N1CCC[C@H](N1)C(=O)OCC(C)(C)C2 (atropisomer, axis not shown; (Ra)) [Compound Z60] | 261 |
| CO[C@@H](C)c1ncc(C#CCN2CCS(=O)(=O)CC2)cc1-c1c2c(nn1C(C)C)/C=C/c1csc(n1)C[C@H](NC(=O)[C@H](C(C)C)N(C)c1ccc(C)cc1)C(=O)N1CCC[C@H](N1)C(=O)OCC(C)(C)C2 (atropisomer, axis not shown; (Ra)) [Compound Z61, (2S)-N-((4^2Z,8^3S,2E,6S)-1^5-(Ra)-(5-(3-(1,1-dioxidothiomorpholino)prop-1-yn-1-yl)-2-((S)-1-methoxyethyl)pyridin-3-yl)-1^1-isopropyl-12,12-dimethyl-7,9-dioxo-8^1,8^2,8^3,8^4,8^5,8^6-hexahydro-1^1H-10-oxa-4(4,2)-thiazola-8(1,3)-pyridazina-1(3,4)-pyrazolocyclotridec-2-en-6-yl)-3-methyl-2-(methyl(p-tolyl)amino)butanamide] | 69.9 |
| CCn1nc2c(c1-c1cc(C#CCN3CCS(=O)(=O)CC3)cnc1[C@H](C)OC)CC(C)(C)COC(=O)[C@@H]1CCCN(N1)C(=O)[C@@H](NC(=O)[C@H](C(C)C)N(C)c1ccncc1)Cc1nc(cs1)/C=C/2 (atropisomer, axis not shown; (Ra)) [Compound Z122, (2S)-N-((4^2Z,8^3S,2E,6S)-(Ra)-1^5-(5-(3-(1,1-dioxidothiomorpholino)prop-1-yn-1-yl)-2-((S)-1-methoxyethyl)pyridin-3-yl)-1^1-ethyl-12,12-dimethyl-7,9-dioxo-8^1,8^2,8^3,8^4,8^5,8^6-hexahydro-1^1H-10-oxa-4(4,2)-thiazola-8(1,3)-pyridazina-1(3,4)-pyrazolocyclotridec-2-en-6-yl)-3-methyl-2-(methyl(pyridin-4-yl)amino)butanamide] | 181 |
| CCn1nc2c(c1-c1cc(C#CCN3CCS(=O)(=O)CC3)cnc1[C@H](C)OC)CC(C)(C)COC(=O)[C@@H]1CCCN(N1)C(=O)[C@@H](NC(=O)[C@H](C(C)C)N(C)c1cccnc1)Cc1nc(cs1)/C=C/2 (atropisomer, axis not shown; (Ra)) [Compound Z123, (2S)-N-((4^2Z,8^3S,2E,6S)-(Ra)-1^5-(5-(3-(1,1-dioxidothiomorpholino)prop-1-yn-1-yl)-2-((S)-1-methoxyethyl)pyridin-3-yl)-1^1-ethyl-12,12-dimethyl-7,9-dioxo-8^1,8^2,8^3,8^4,8^5,8^6-hexahydro-1^1H-10-oxa-4(4,2)-thiazola-8(1,3)-pyridazina-1(3,4)-pyrazolocyclotridec-2-en-6-yl)-3-methyl-2-(methyl(pyridin-3-yl)amino)butanamide] | 4.63 |
| CCn1nc2c(c1-c1cc(C#CCN3CCS(=O)(=O)CC3)cnc1[C@H](C)OC)CC(C)(C)COC(=O)[C@@H]1CCCN(N1)C(=O)[C@@H](NC(=O)[C@H](C(C)C)N(C)c1ccc(F)cc1)Cc1nc(cs1)/C=C/2 (atropisomer, axis not shown; (Ra)) [Compound Z124, (2S)-N-((4^2Z,8^3S,2E,6S)-(Ra)-1^5-(5-(3-(1,1-dioxidomorpholinyl)prop-1-yn-1-yl)-2-((S)-1-methoxyethyl)pyridin-3-yl)-1^1-ethyl-12,12-dimethyl-7,9-dioxo-8^1,8^2,8^4,8^5,8^6-hexahydro-1^1H-10-oxa-4(4,2)-thiazola-8(1,3)-pyridazina-1(3,4)-pyrrolacyclotridecaphan-2-en-6-yl)-2-[(4-fluorophenyl)(methyl)amino]-3-methylbutanamide] | 2.05 |
| CCn1nc2c(c1-c1cc(C#CCN3CCS(=O)(=O)CC3)cnc1[C@H](C)OC)CC(C)(C)COC(=O)[C@@H]1CCCN(N1)C(=O)[C@@H](NC(=O)[C@@H](Cc1ccccc1)C(C)C)Cc1nc(cs1)/C=C/2 (atropisomer, axis not shown; (Ra)) [Compound Z127, (2S)-2-benzyl-N-((4^2Z,8^3S,2E,6S)-(Ra)-1^5-(5-(3-(1,1-dioxidothiomorpholino)prop-1-yn-1-yl)-2-((S)-1-methoxyethyl)pyridin-3-yl)-1^1-ethyl-12,12-dimethyl-7,9-dioxo-8^1,8^2,8^3,8^4,8^5,8^6-hexahydro-1^1H-10-oxa-4(4,2)-thiazola-8(1,3)-pyridazina-1(3,4)-pyrrolacyclotridecaphan-2-en-6-yl)-3-methylbutanamide] | 104 |
| CO[C@@H](C)c1ncc(C#CCN2CCS(=O)(=O)CC2)cc1-c1c2c(nn1C(C)C)/C=C/c1csc(n1)C[C@H](NC(=O)[C@H](C(C)C)N(C)C(=O)Cc1cccc3ccsc13)C(=O)N1CCC[C@H](N1)C(=O)OCC(C)(C)C2 (single isomer, unassigned) [Compound Z120] | 513 |
| COC[C@H]1CCN1C(=O)N[C@H]1Cc2nc(cs2)/C=C/c2nn(C(C)C)c(-c3cc(C#CCN4CCS(=O)(=O)CC4)cnc3[C@H](C)OC)c2CC(C)(C)COC(=O)[C@@H]2CCCN(N2)C1=O [Compound Z41, (2R)-N-((4^2Z,8^3S,2E,6S)-1^5-(5-(3-(1,1-dioxidothiomorpholino)prop-1-yn-1-yl)-2-((S)-1-methoxyethyl)pyridin-3-yl)-1^1-isopropyl-12,12-dimethyl-7,9-dioxo-8^1,8^2,8^3,8^4,8^5,,8^6-hexahydro-1^1H-10-oxa-4(4,2)-thiazola-8(1,3)-pyridazina-1(3,4)-pyrrolacyclotridecaphan-2-en-6-yl)-2-(methoxymethyl)azetidine-1-carboxamide] | 356 |
